Measured values taken from US11771715B2 (Orna Therapeutics, Inc., priority 2019, dated 2023).

Tests used:
1C1C7 cells [1] = assay: 5′ UTR variants in 1C1C7 cells (Ex. 54); type: cell-based; details: CK IRES with 5′ UTR variants
Description: This example describes modifications of circular RNAs by inserting 5′ UTR variants. […] 1C1C7 cells were transfected with the circular RNAs.

[2] = Table 3, representative compounds of Formula (III); cited from earlier work
1C1C7 cells [3] = assay: GLuc luminescence and functional stability by IRES in 1C1C7 cells (Ex. 8A); details: 24 hours
HEK293 cells = assay: GLuc luminescence by IRES in HEK293 cells (Ex. 8A); details: 24 hours, 100 ng circularization reaction
1C1C7 cells [4] = assay: Expression of anti-murine CD19 CAR by IRES variant in lipotransfected 1C1C7 cells (Ex. 41); type: cell-based; details: 24 hours after lipotransfection
Experimental: After 24 hours, 1C1C7 cells were incubated with His-tagged recombinant murine CD19 (Sino Biological) protein, then stained with a secondary anti-His antibody. Afterwards, the cells were analyzed via flow cytometry.

UTR2: 5′ UTR variant: canonical Kozak with "a 36-nucleotide unstructured/low GC spacer sequence" added (DNA AATAAGAGAGAAAAGAAGAGTAAGAAGAAATATAAGAGCCACC; expressed or natural sequence)
translation, luminescence (1C1C7 cells [1]): more effective

UTR3: 5′ UTR variant: "a higher-GC/structured spacer with a kozak sequence" (DNA CGAACTAGTATTCTTCTGGTCCCCACAGACTCAGAGAGAACCCGCCACC; expressed or natural sequence)
translation, luminescence (1C1C7 cells [1]): did not show the same benefit

CCCCCCCCCCCCC(CCCCCCCCCC)C(=O)OCCCCCCN(CCCCO)CCCCOC(=O)C(CCCCCCCCCC)CCCCCCCCCCCC (stereo not drawn) [III-27]
pKa [2]: 5.77

B1: Salivirus A SZ-1 (nucleic acid)
DNA: TCTGTCCTCACCCCATCTTCCCTTCTTTCCTGCACCGTTACGCTTACTCGCATGTGCATTGAGTGGTGCACGTGCTTGAACAAACAGCTACACTCACATGGGGGCGGGTTTTCCCGCCCTGCGGCCTCTCGCGAGGCCCACCCCTCCCCTTCCTCCCATAACTACAGTGCTTTGGTAGGTAAGCATCCTGATCCCCCGCGGAAGCTGCTCACGTGGCAACTGTGGGGACCCAGACAGGTTATCAAAGGCACCCGGTCTTTCCGCCTTCAGGAGTATCCCTGCTAGTGAATTCTAGTAGGGCTCTGCTTGGTGCCAACCTCCCCCAAATGCGCGCTGCGGGAGTGCTCTTCCCCAACTCACCCTAGTATCCTCTCATGTGTGTGCTTGGTCAGCATATCTGAGACGATGTTCCGCTGTCCCAGACCAGTCCAGTAATGGACGGGCCAGTGTGCGTAGTCGTCTTCCGGCTTGTCCGGCGCATGTTTGGTGAACCGGTGGGGTAAGGTTGGTGTGCCCAACGCCCGTACTTTGGTGATACCTCAAGACCACCCAGGAATGCCAGGGAGGTACCCCGCTTCACAGCGGGATCTGACCCTGGGCTAATTGTCTACGGTGGTTCTTCTTGCTTCCACTTCTTTCTACTGTTCATG
luminescence in supernatant (1C1C7 cells [3]): produced high luminescence

B2: Crohivirus B IRES: one of the "selected IRES sequences" modified (e.g., truncated); "SEQ ID NOs: 348-389" (nucleic acid)
DNA: GTATAAGAGACAGGTGTTTGCCTTGTCTTCGGACTGGCATCTTGGGACCAACCCCCCTTTTCCCCAGCCATGGGTTAAATGGCAATAAAGGACGTAACAACTTTGTAACCATTAAGCTTTGTAATTTTGTAACCACTAAGCTTTGTGCACATAATGTAACCATCAAGCTTGTTAGTCCCAGCAGGAGGTTTGCATGCTTGTAGCCGAAATGGGGCTCGACCCCCCATAGTAGGATACTTGATTTTGCATTCCATTGTGGACCTGCAAACTCTACACATAGAGGCTTTGTCTTGCATCTAAACACCTGAGTACAGTGTGTACCTAGACCCTATAGTACGGGAGGACCGTTTGTTTCCTCAATAACCCTACATAATAGGCTAGGTGGGCATGCCCAATTTGCAAGATCCCAGACTGGGGGTCGGTCTGGGCAGGGTTAGATCCCTGTTAGCTACTGCCTGATAGGGTGGTGCTCAACCATGTGTAGTTTAAATTGAGCTGTTCATATACC
modifications: Crohivirus B
luminescence in supernatant (HEK293 cells): produced the highest luminescence

B3: parabovirus: "IRES sourced from the indicated virus" in circular RNA encoding anti-murine CD19 CAR (nucleic acid, listed as Parabovirus sp.)
DNA: TGAACCGTTACGCACCACTCAGTTGGTGTTTGGTGGCACCAATGATGGAACAAAAGGCTACACCACTTGGGCTACGGCCCGCGCCACCTTGTGGCGCAAAGACATTAGAAGAATAGCATACCGCCCACTAGGGCCCTGCAGCCAGCAGGGTAACGGGCAAGCACTTCTGTCTCCCCGGTAGAACGGTATAGGCTGTACCCACGGCCGAAAACTGAACTATCGTTACCCGACTCCGTACTTCGCAAAGCTTAGTAGGAAACTGGAAAGTTCGAGTTATTGACCCGGAGTGTTCCCCCCACTCCAGAAACGCGTGATGAGGGTTGCCACCCCGACCATGGCGACATGGTGGGCATCCCTGCGCTGGCACGCGGCCTCTAAGAGGATAACTCGCTCCTACTGGTAACCGAAGAGCCCCGTGAGCTACGGTTTATTCCTCCGCCTCCCTGAATGCGGCTAATCCTAACCCATGAGCAGTTGCCATAGATCCATATGGTGGACTGTCGTAACGCGTAAGTTGTGGGCGGAACCGACTACTTTGGGATGGCGTGTTTCCTTGTTTTCTCCATTTGTTGTTGTATGGTGACAAGTTATAGATCTCGATCTATAGCGTTTCTTGAGAGATTTCCAAACATTTATTCAAGTCGTACAATTCTTGTGTTTAAGCAGTACAGTGTAAGG
expression of anti-mouse CD19 CAR (1C1C7 cells [4]): capable of driving expression
